What was measured:
[1] = tested on: A549-ACE2 infected with SARS-CoV-2; test: SARS-CoV-2 infection rate relative to DMSO; higher = more infection; settings: 24 h
A549-ACE2 [2] = test: drug-induced phospholipidosis relative to tamoxifen; higher = more phospholipidosis
[3] = tested on: A549-ACE2 infected with SARS-CoV-2; test: cell count relative to DMSO; higher = less toxic; settings: 24 h
HepG2 [4] = test: drug sensitivity score (DSS) for viability; higher = more toxic; extreme values may be limits of the assay; settings: 72 h
Vero E6 [5] = test: as above; settings: 72 h
Caco-2 [6] = test: as above; settings: 72 h
U2OS [7] = test: as above; settings: 72 h
Calu-3 [8] = test: as above; settings: 72 h
A549-ACE2 [9] = test: phospholipidosis EC50; higher = less potent phospholipidosis inducer
HepG2 [10] = test: relative viability EC50 (midpoint between 100% and the lowest measured viability); higher = less toxic; settings: 72 h
Vero E6 [11] = test: as above; settings: 72 h
Caco-2 [12] = test: as above; settings: 72 h
U2OS [13] = test: as above; settings: 72 h
Calu-3 [14] = test: as above; settings: 72 h
HepG2 [15] = test: cell viability relative to DMSO; higher = less toxic; settings: 72 h
Vero E6 [16] = test: as above; settings: 72 h
Caco-2 [17] = test: as above; settings: 72 h
U2OS [18] = test: as above; settings: 72 h
Calu-3 [19] = test: as above; settings: 72 h
[20] = tested on: A549-ACE2 infected with SARS-CoV-2; test: morphology score (similarity to uninfected cells); higher = more like uninfected cells; settings: 24 h

OC1(c2ccc(Cl)c(C(F)(F)F)c2)CCN(CCCC(c2ccc(F)cc2)c2ccc(F)cc2)CC1 [penfluridol]
Settings	SARS-CoV-2 infection rate [%]	cell count [%]	cell viability [%]	morphology score	phospholipidosis EC50 [µM]
A549-ACE2 [9], 24 h	–	–	–	–	0.874
Caco-2 [17], 1 nM	–	–	87.3	–	–
Caco-2 [17], 10 nM	–	–	74.2	–	–
Caco-2 [17], 100 nM	–	–	96.5	–	–
Caco-2 [17], 1000 nM	–	–	82.2	–	–
Caco-2 [17], 10000 nM	–	–	0.3	–	–
Calu-3 [19], 1 nM	–	–	102	–	–
Calu-3 [19], 10 nM	–	–	95.2	–	–
Calu-3 [19], 100 nM	–	–	100	–	–
Calu-3 [19], 1000 nM	–	–	93.1	–	–
Calu-3 [19], 10000 nM	–	–	1	–	–
HepG2 [15], 1 nM	–	–	106	–	–
HepG2 [15], 10 nM	–	–	108	–	–
HepG2 [15], 100 nM	–	–	104	–	–
HepG2 [15], 1000 nM	–	–	103	–	–
HepG2 [15], 10000 nM	–	–	0.2	–	–
U2OS [18], 1 nM	–	–	99.4	–	–
U2OS [18], 10 nM	–	–	100	–	–
U2OS [18], 100 nM	–	–	104	–	–
U2OS [18], 1000 nM	–	–	93.2	–	–
U2OS [18], 10000 nM	–	–	3	–	–
Vero E6 [16], 1 nM	–	–	105	–	–
Vero E6 [16], 10 nM	–	–	96.3	–	–
Vero E6 [16], 100 nM	–	–	94.1	–	–
Vero E6 [16], 1000 nM	–	–	97.8	–	–
Vero E6 [16], 10000 nM	–	–	0.1	–	–
[1], 0.1 µM	100	–	–	–	–
[1], 0.3 µM	102	–	–	–	–
[1], 1 µM	74	–	–	–	–
[1], 3 µM	8	–	–	–	–
[3], 0.1 µM	–	101	–	–	–
[3], 0.3 µM	–	94	–	–	–
[3], 1 µM	–	113	–	–	–
[3], 3 µM	–	95	–	–	–
[20], 0.1 µM	–	–	–	0.06	–
[20], 0.3 µM	–	–	–	0.27	–
[20], 1 µM	–	–	–	0.55	–
[20], 3 µM	–	–	–	0.86	–

drug-induced phospholipidosis [%], A549-ACE2 [2]
Settings	0.3 µM	0.833333 µM	3.33333 µM	6.66667 µM
24 h	12.8	30.2	64.4	48.3
48 h	13.8	28.2	67.6	–
72 h	16.8	26.4	77.7	–

Settings	drug sensitivity score	relative viability EC50 [µM]
Caco-2 [6]	8.4	–
Caco-2 [12]	–	1.83
Calu-3 [8]	6.5	–
Calu-3 [14]	–	2.6
HepG2 [4]	5.3	–
HepG2 [10]	–	3.34
U2OS [7]	6.4	–
U2OS [13]	–	2.6
Vero E6 [5]	5.9	–
Vero E6 [11]	–	3

c1cnc(N2CCN(Cc3ccc4c(c3)OCO4)CC2)nc1 [piribedil]
Settings	SARS-CoV-2 infection rate, [1] [%]	cell count, [3] [%]	cell viability, Caco-2 [17] [%]	cell viability, Calu-3 [19] [%]	cell viability, HepG2 [15] [%]	cell viability, U2OS [18] [%]	cell viability, Vero E6 [16] [%]	morphology score, [20]
1 nM	–	–	106	110	98.9	104	100	–
10 nM	–	–	96.7	98	112	98.5	105	–
100 nM	–	–	95.8	99.3	98.9	103	100	–
0.3 µM	109	98	–	–	–	–	–	-0.23
1000 nM	–	–	92.9	89.5	107	98	98.1	–
3 µM	104	96	–	–	–	–	–	-0.1
10 µM	99	97	–	–	–	–	–	-0.05
10000 nM	–	–	90.3	102	102	99.9	94.4	–
30 µM	88	104	–	–	–	–	–	0.26

drug-induced phospholipidosis [%], A549-ACE2 [2]
Settings	0.3 µM	0.833333 µM	3.33333 µM	6.66667 µM	10 µM	30 µM
24 h	0.73	-0.78	-1.88	-1.98	-0.73	4.07
48 h	1.04	-0.48	-0.16	0.15	0.48	5.06
72 h	3.05	-0.292	-0.287	2.2	1.92	7.77

Settings	drug sensitivity score	relative viability EC50 [µM]
Caco-2 [6]	0	–
Caco-2 [12]	–	> 10
Calu-3 [8]	0	–
Calu-3 [14]	–	> 10
HepG2 [4]	0	–
HepG2 [10]	–	> 10
U2OS [7]	0	–
U2OS [13]	–	> 10
Vero E6 [5]	0	–
Vero E6 [11]	–	> 10

CCCOC(C(=O)OC1CCN(C)CC1)(c1ccccc1)c1ccccc1 [propiverine]
Settings	SARS-CoV-2 infection rate [%]	cell count [%]	cell viability [%]	morphology score	phospholipidosis EC50 [µM]
A549-ACE2 [9], 24 h	–	–	–	–	2.8
A549-ACE2 [9], 48 h	–	–	–	–	4.22
A549-ACE2 [9], 72 h	–	–	–	–	5.23
Caco-2 [17], 1 nM	–	–	102	–	–
Caco-2 [17], 10 nM	–	–	102	–	–
Caco-2 [17], 100 nM	–	–	102	–	–
Caco-2 [17], 1000 nM	–	–	95.5	–	–
Caco-2 [17], 10000 nM	–	–	89.7	–	–
Calu-3 [19], 1 nM	–	–	93.5	–	–
Calu-3 [19], 10 nM	–	–	95.1	–	–
Calu-3 [19], 100 nM	–	–	100	–	–
Calu-3 [19], 1000 nM	–	–	105	–	–
Calu-3 [19], 10000 nM	–	–	80.4	–	–
HepG2 [15], 1 nM	–	–	106	–	–
HepG2 [15], 10 nM	–	–	109	–	–
HepG2 [15], 100 nM	–	–	104	–	–
HepG2 [15], 1000 nM	–	–	117	–	–
HepG2 [15], 10000 nM	–	–	78	–	–
U2OS [18], 1 nM	–	–	107	–	–
U2OS [18], 10 nM	–	–	99	–	–
U2OS [18], 100 nM	–	–	99.5	–	–
U2OS [18], 1000 nM	–	–	97.8	–	–
U2OS [18], 10000 nM	–	–	96.8	–	–
Vero E6 [16], 1 nM	–	–	103	–	–
Vero E6 [16], 10 nM	–	–	95	–	–
Vero E6 [16], 100 nM	–	–	105	–	–
Vero E6 [16], 1000 nM	–	–	96.4	–	–
Vero E6 [16], 10000 nM	–	–	98.4	–	–
[1], 0.3 µM	95	–	–	–	–
[1], 3 µM	51	–	–	–	–
[1], 10 µM	17	–	–	–	–
[1], 30 µM	11	–	–	–	–
[3], 0.3 µM	–	101	–	–	–
[3], 3 µM	–	119	–	–	–
[3], 10 µM	–	120	–	–	–
[3], 30 µM	–	110	–	–	–
[20], 0.3 µM	–	–	–	0.19	–
[20], 3 µM	–	–	–	0.77	–
[20], 10 µM	–	–	–	0.9	–
[20], 30 µM	–	–	–	0.74	–

drug-induced phospholipidosis [%], A549-ACE2 [2]
Settings	0.3 µM	0.833333 µM	3.33333 µM	6.66667 µM	10 µM	30 µM
24 h	2.28	8.59	66.7	91.7	105	109
48 h	4.59	4.15	46.3	84.9	98.8	115
72 h	4.64	4.08	43.7	80.2	95.8	123

Settings	drug sensitivity score	relative viability EC50 [µM]
Caco-2 [6]	0	–
Caco-2 [12]	–	> 10
Calu-3 [8]	0.4	–
Calu-3 [14]	–	> 10
HepG2 [4]	0.4	–
HepG2 [10]	–	> 10
U2OS [7]	0	–
U2OS [13]	–	> 10
Vero E6 [5]	0	–
Vero E6 [11]	–	> 10

Source: the supplement of paper PMC13380429
